# Experimental data published in PubChem BioAssay AID2060912 (Molecular Pharmacology Branch, DTP, NCI, 2025).
# pIC50: −log10 of the molar value.
# Test system: HUVEC/MSC spheroids viability
# Assay: Human HUVEC/MSC cell line growth inhibition [KRAS2];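 for viability, T/C: percent of DMSO vehicle control luminescence so 100% = untreated viability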
# Conditions: for pIC50: curve of first compound; for viability, T/C: stronger effect = lower value
# Method in brief: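 Endothelial cells (HUVEC) plus mesenchymal stem cells, cultured at 37 °C/5% CO2 and assembled into spheroids without cancer cells, served as a stromal control. Drug pairs and single agents spanned half-log ranges anchored to clinical Cmax.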
# [1] = second compound 0.0316 µM, first compound 0.0316 µM
# [2] = second compound 0.0316 µM, first compound 0.1 µM
# [3] = second compound 0.1 µM, first compound 0.0316 µM
# [4] = second compound 0.1 µM, first compound 0.1 µM
# [5] = second compound 0.316 µM, first compound 0.0316 µM
# [6] = second compound 0.316 µM, first compound 0.1 µM
# [7] = second compound 1 µM, first compound 0.0316 µM
# [8] = second compound 1 µM, first compound 0.1 µM
# [9] = second compound 3.16 µM, first compound 0.0316 µM
# [10] = second compound 3.16 µM, first compound 0.1 µM
# [11] = second compound 10 µM, first compound 0.0316 µM
# [12] = second compound 10 µM, first compound 0.1 µM
smiles,measurement,setting,value
CC(=O)OC12COC1CC(O)C1(C)C(=O)C(O)C3=C(C)C(OC(=O)C(O)C(NC(=O)OC(C)(C)C)c4ccccc4)CC(O)(C(OC(=O)c4ccccc4)C21)C3(C)C (stereo unspecified) + COc1cc2nc(C)nc(NC(C)c3cc(N)cc(C(F)(F)F)c3)c2cc1OC1CCOC1,pIC50,second compound 0.0316 µM,> 8.02
same,pIC50,second compound 0.1 µM,< 5.52
same,pIC50,second compound 0.316 µM,> 8.02
same,pIC50,second compound 1 µM,> 8.02
same,pIC50,second compound 3.16 µM,< 5.52
same,pIC50,second compound 10 µM,5.56
same,"viability, T/C","second compound 0.0316 µM, first compound 0.00949 µM",47.1%
same,"viability, T/C","second compound 0.0316 µM, first compound 0.03 µM",55.3%
same,"viability, T/C","second compound 0.0316 µM, first compound 0.0949 µM",53%
same,"viability, T/C","second compound 0.0316 µM, first compound 0.3 µM",36.7%
same,"viability, T/C","second compound 0.0316 µM, first compound 0.949 µM",51.9%
same,"viability, T/C","second compound 0.0316 µM, first compound 3 µM",60.4%
same,"viability, T/C","second compound 0.1 µM, first compound 0.00949 µM",50.7%
same,"viability, T/C","second compound 0.1 µM, first compound 0.03 µM",57%
same,"viability, T/C","second compound 0.1 µM, first compound 0.0949 µM",54%
same,"viability, T/C","second compound 0.1 µM, first compound 0.3 µM",44%
same,"viability, T/C","second compound 0.1 µM, first compound 0.949 µM",54.7%
same,"viability, T/C","second compound 0.1 µM, first compound 3 µM",61.5%
same,"viability, T/C","second compound 0.316 µM, first compound 0.00949 µM",45.5%
same,"viability, T/C","second compound 0.316 µM, first compound 0.03 µM",44.4%
same,"viability, T/C","second compound 0.316 µM, first compound 0.0949 µM",44.8%
same,"viability, T/C","second compound 0.316 µM, first compound 0.3 µM",49.3%
same,"viability, T/C","second compound 0.316 µM, first compound 0.949 µM",47.5%
same,"viability, T/C","second compound 0.316 µM, first compound 3 µM",57.1%
same,"viability, T/C","second compound 1 µM, first compound 0.00949 µM",45.5%
same,"viability, T/C","second compound 1 µM, first compound 0.03 µM",47.8%
same,"viability, T/C","second compound 1 µM, first compound 0.0949 µM",37.2%
same,"viability, T/C","second compound 1 µM, first compound 0.3 µM",57.1%
same,"viability, T/C","second compound 1 µM, first compound 0.949 µM",63.6%
same,"viability, T/C","second compound 1 µM, first compound 3 µM",47.9%
same,"viability, T/C","second compound 3.16 µM, first compound 0.00949 µM",51.5%
same,"viability, T/C","second compound 3.16 µM, first compound 0.03 µM",48.3%
same,"viability, T/C","second compound 3.16 µM, first compound 0.0949 µM",58.6%
same,"viability, T/C","second compound 3.16 µM, first compound 0.3 µM",48.1%
same,"viability, T/C","second compound 3.16 µM, first compound 0.949 µM",58.3%
same,"viability, T/C","second compound 3.16 µM, first compound 3 µM",50.6%
same,"viability, T/C","second compound 10 µM, first compound 0.00949 µM",52.4%
same,"viability, T/C","second compound 10 µM, first compound 0.03 µM",71.7%
same,"viability, T/C","second compound 10 µM, first compound 0.0949 µM",59.2%
same,"viability, T/C","second compound 10 µM, first compound 0.3 µM",58.1%
same,"viability, T/C","second compound 10 µM, first compound 0.949 µM",59.8%
same,"viability, T/C","second compound 10 µM, first compound 3 µM",49.3%
CN(C)C/C=C/C(=O)Nc1cc2c(Nc3ccc(F)c(Cl)c3)ncnc2cc1O[C@H]1CCOC1 + COc1cc2nc(C)nc(NC(C)c3cc(N)cc(C(F)(F)F)c3)c2cc1OC1CCOC1,pIC50,second compound 0.0316 µM,< 7.00
same,pIC50,second compound 0.1 µM,< 7.00
same,pIC50,second compound 0.316 µM,< 7.00
same,pIC50,second compound 1 µM,< 7.00
same,pIC50,second compound 3.16 µM,< 7.00
same,pIC50,second compound 10 µM,< 7.00
same,"viability, T/C","second compound 0.0316 µM, first compound 0.000316 µM",98.6%
same,"viability, T/C","second compound 0.0316 µM, first compound 0.001 µM",110%
same,"viability, T/C","second compound 0.0316 µM, first compound 0.00316 µM",104%
same,"viability, T/C","second compound 0.0316 µM, first compound 0.01 µM",92.8%
same,"viability, T/C",[1],86.8%
same,"viability, T/C",[2],107%
same,"viability, T/C","second compound 0.1 µM, first compound 0.000316 µM",96.3%
same,"viability, T/C","second compound 0.1 µM, first compound 0.001 µM",90.2%
same,"viability, T/C","second compound 0.1 µM, first compound 0.00316 µM",96.8%
same,"viability, T/C","second compound 0.1 µM, first compound 0.01 µM",73.7%
same,"viability, T/C",[3],90.5%
same,"viability, T/C",[4],85.1%
same,"viability, T/C","second compound 0.316 µM, first compound 0.000316 µM",132%
same,"viability, T/C","second compound 0.316 µM, first compound 0.001 µM",102%
same,"viability, T/C","second compound 0.316 µM, first compound 0.00316 µM",86.9%
same,"viability, T/C","second compound 0.316 µM, first compound 0.01 µM",99.3%
same,"viability, T/C",[5],74.8%
same,"viability, T/C",[6],97.3%
same,"viability, T/C","second compound 1 µM, first compound 0.000316 µM",112%
same,"viability, T/C","second compound 1 µM, first compound 0.001 µM",104%
same,"viability, T/C","second compound 1 µM, first compound 0.00316 µM",97.6%
same,"viability, T/C","second compound 1 µM, first compound 0.01 µM",84%
same,"viability, T/C",[7],91.6%
same,"viability, T/C",[8],104%
same,"viability, T/C","second compound 3.16 µM, first compound 0.000316 µM",91.6%
same,"viability, T/C","second compound 3.16 µM, first compound 0.001 µM",99.1%
same,"viability, T/C","second compound 3.16 µM, first compound 0.00316 µM",76.3%
same,"viability, T/C","second compound 3.16 µM, first compound 0.01 µM",95.8%
same,"viability, T/C",[9],75.3%
same,"viability, T/C",[10],83.7%
same,"viability, T/C","second compound 10 µM, first compound 0.000316 µM",60.7%
same,"viability, T/C","second compound 10 µM, first compound 0.001 µM",85.5%
same,"viability, T/C","second compound 10 µM, first compound 0.00316 µM",80%
same,"viability, T/C","second compound 10 µM, first compound 0.01 µM",59.6%
same,"viability, T/C",[11],74.4%
same,"viability, T/C",[12],74.4%
O=C(c1cc(Cc2n[nH]c(=O)c3ccccc23)ccc1F)N1CCN(C(=O)C2CC2)CC1 + COc1cc2nc(C)nc(NC(C)c3cc(N)cc(C(F)(F)F)c3)c2cc1OC1CCOC1,pIC50,second compound 0.0316 µM,< 5.00
same,pIC50,second compound 0.1 µM,< 5.00
same,pIC50,second compound 0.316 µM,< 5.00
same,pIC50,second compound 1 µM,< 5.00
same,pIC50,second compound 3.16 µM,< 5.00
same,pIC50,second compound 10 µM,< 5.00
same,"viability, T/C",[1],104%
same,"viability, T/C",[2],108%
same,"viability, T/C","second compound 0.0316 µM, first compound 0.316 µM",102%
same,"viability, T/C","second compound 0.0316 µM, first compound 1 µM",94.2%
same,"viability, T/C","second compound 0.0316 µM, first compound 3.16 µM",89.7%
same,"viability, T/C","second compound 0.0316 µM, first compound 10 µM",99.3%
same,"viability, T/C",[3],108%
same,"viability, T/C",[4],101%
same,"viability, T/C","second compound 0.1 µM, first compound 0.316 µM",90.5%
same,"viability, T/C","second compound 0.1 µM, first compound 1 µM",89.5%
same,"viability, T/C","second compound 0.1 µM, first compound 3.16 µM",90.3%
same,"viability, T/C","second compound 0.1 µM, first compound 10 µM",83.9%
same,"viability, T/C",[5],93.8%
same,"viability, T/C",[6],92.9%
same,"viability, T/C","second compound 0.316 µM, first compound 0.316 µM",101%
same,"viability, T/C","second compound 0.316 µM, first compound 1 µM",93.8%
same,"viability, T/C","second compound 0.316 µM, first compound 3.16 µM",101%
same,"viability, T/C","second compound 0.316 µM, first compound 10 µM",115%
same,"viability, T/C",[7],86.5%
same,"viability, T/C",[8],115%
same,"viability, T/C","second compound 1 µM, first compound 0.316 µM",93.8%
same,"viability, T/C","second compound 1 µM, first compound 1 µM",88.8%
same,"viability, T/C","second compound 1 µM, first compound 3.16 µM",89.5%
same,"viability, T/C","second compound 1 µM, first compound 10 µM",93.2%
same,"viability, T/C",[9],75%
same,"viability, T/C",[10],101%
same,"viability, T/C","second compound 3.16 µM, first compound 0.316 µM",93%
same,"viability, T/C","second compound 3.16 µM, first compound 1 µM",82.2%
same,"viability, T/C","second compound 3.16 µM, first compound 3.16 µM",84.8%
same,"viability, T/C","second compound 3.16 µM, first compound 10 µM",101%
same,"viability, T/C",[11],72.3%
same,"viability, T/C",[12],76.5%
same,"viability, T/C","second compound 10 µM, first compound 0.316 µM",79.4%
same,"viability, T/C","second compound 10 µM, first compound 1 µM",68.2%
same,"viability, T/C","second compound 10 µM, first compound 3.16 µM",77.2%
same,"viability, T/C","second compound 10 µM, first compound 10 µM",63.2%
